Laboratory results: patent US20140187625A1, “RODENTICIDAL COMPOUND, COMPOSITION INCLUDING SAME AND USE FOR COMBATING RODENT PESTS” (priority 2011, published 2014)
Where two headings read alike, the source gives them in different places.

Biological target: T1, activity with respect to vitamin K (vitamin K epoxide substrate), microsomal liver fractions from sensitive rats (Rattus norvegicus, UniProt Q6TEK4)
T1 construct: with 0.5 to 1 mg of microsomal liver fractions from sensitive rats; from tissue; host or cells: rat liver microsomes (sensitive rats)
T1 sequence (Q6TEK4 1-161): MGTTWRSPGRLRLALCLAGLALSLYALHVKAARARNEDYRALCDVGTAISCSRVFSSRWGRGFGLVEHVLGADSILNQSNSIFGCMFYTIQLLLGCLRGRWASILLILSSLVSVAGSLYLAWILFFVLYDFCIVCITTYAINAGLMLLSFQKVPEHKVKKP
Assay: Inhibition of vitamin K epoxide reduction (activity with respect to vitamin K) in rat liver microsomes, IC50
Type: biochemical
Description: The operating protocol is the following. Incubation is carried out in a 200 mM Hepes buffer (pH 7.4) containing 150 mM KCl in the presence of a reducing agent, dithiothreitol (1 mM): • with 0.5 to 1 mg of microsomal liver fractions from sensitive rats, and the reaction substrate, • with […] of vitamin K epoxide in a final volume of 1 ml.
The mixture is incubated for 30 minutes at 37° C. and the reaction is stopped by addition of 4 ml of a mixture of isopropanol/hexane (1:1).
The reaction mixture is then centrifuged for 10 minutes at 3,000 revolutions per minute.
The organic phase is collected and then evaporated to dryness under nitrogen.
The dry residue is immediately taken up in 200 μl of isopropanol.
The vitamin K is then analyzed. The products are separated by reverse chromatography on a C8 column using a mobile phase composed of methanol and acetic acid under isocratic conditions (1 ml/min) at 45° C. Detection of the product is carried out by MS/MS with an APCI source in positive mode.
The identification criteria for vitamin K are the retention time and the production of fragment 187 from the initial ion 451.
The IC50 values are evaluated by non-linear to linear regression from the equation of non-competitive inhibition:
v=(vmax/(l+(I/Ki)))*(S/(Km+S))
where v represents the initial rate, I the concentration of anticoagulant, Km the Michaelis-Menten constant, S the concentration of substrate (mM), Vmax the maximum rate of reaction and Ki the inhibition constant.

Structure (SMILES): CCCCCCCCCCc1c(O)c2ccccc2oc1=O [III]
- IC50: 60 nM

Structure (SMILES): CCCCCCCCc1c(O)c2ccccc2oc1=O [II]
- IC50: 150 nM

Structure (SMILES): CCCCCCCCCCCCc1c(O)c2ccccc2oc1=O [IV]
- IC50: 50 nM

Structure (SMILES): CCCCCCCCCCCCCCCCCCCCc1c(O)c2ccccc2oc1=O [IX, reference compound]
- IC50 (microsomal liver fractions from sensitive rats, vitamin K epoxide substrate, 30 minutes at 37° C., pH 7.4, 1 mM dithiothreitol, read-out: IC50): > 500 nM

Structure (SMILES): CCCCCCc1c(O)c2ccccc2oc1=O [VIII, reference compound]
- IC50: > 200 nM

Structure (SMILES): CCCCCCCCCCCCCCCCCCc1c(O)c2ccccc2oc1=O [VII]
- IC50: 60 nM

Structure (SMILES): CCCCCCCCCCCCCCCCc1c(O)c2ccccc2oc1=O [VI]
- IC50: 40 nM

Structure (SMILES): CCCCCCCCCCCCCCc1c(O)c2ccccc2oc1=O [V]
- IC50: 40 nM
